Data taken from patent publication US9944602B2, “Piperidinone herbicides” (E. I. DU PONT DE NEMOURS AND COMPANY, priority 2014, dated 2018).

Columns and labels:
Format in all cases: in vivo
[1] = tested on: barnyardgrass (Echinochloa crus-galli); assay: Test A preemergence barnyardgrass; conditions: 0 to 100 scale, 0 no effect, 100 complete control
Summary of the method: (§1)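 Greenhouse pot test: chemicals formulated with surfactant in non-phytotoxic solvent, sprayed on soil at seeding (pre) or on 1–2 leaf seedlings of 2–10 cm (post). Rating ~10 d later, visual, 0 = no effect to 100 = complete control, relative to untreated controls.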

[2] = tested on: kochia (Kochia scoparia); assay: Test A preemergence kochia; conditions: 0 to 100 scale, 0 no effect, 100 complete control
Summary of the method: as §1

[3] = tested on: ragweed (common ragweed, Ambrosia elatior); assay: Test A preemergence ragweed; conditions: 0 to 100 scale, 0 no effect, 100 complete control
Summary of the method: as §1

[4] = tested on: ryegrass, Italian (Italian ryegrass, Lolium multiflorum); assay: Test A preemergence ryegrass, Italian; conditions: 0 to 100 scale, 0 no effect, 100 complete control
Summary of the method: as §1

[5] = tested on: foxtail, giant (giant foxtail, Setaria faberii); assay: Test A preemergence foxtail, giant; conditions: 0 to 100 scale, 0 no effect, 100 complete control
Summary of the method: as §1

[6] = tested on: pigweed (Amaranthus retroflexus); assay: Test A preemergence pigweed; conditions: 0 to 100 scale, 0 no effect, 100 complete control
Summary of the method: as §1

[7] = tested on: barnyardgrass (Echinochloa crus-galli); assay: Test A postemergence barnyardgrass; conditions: 0 to 100 scale, 0 is no effect, 100 is complete control
Summary of the method: as §1

[8] = tested on: kochia (Kochia scoparia); assay: Test A postemergence kochia; conditions: 0 to 100 scale, 0 is no effect, 100 is complete control
Summary of the method: as §1

[9] = tested on: ragweed (common ragweed, Ambrosia elatior); assay: Test A postemergence ragweed; conditions: 0 to 100 scale, 0 is no effect, 100 is complete control
Summary of the method: as §1

[10] = tested on: ryegrass, Italian (Italian ryegrass, Lolium multiflorum); assay: Test A postemergence ryegrass, Italian; conditions: 0 to 100 scale, 0 is no effect, 100 is complete control
Summary of the method: as §1

[11] = tested on: foxtail, giant (giant foxtail, Setaria faberii); assay: Test A postemergence foxtail, giant; conditions: 0 to 100 scale, 0 is no effect, 100 is complete control
Summary of the method: as §1

[12] = tested on: pigweed (Amaranthus retroflexus); assay: Test A postemergence pigweed; conditions: 0 to 100 scale, 0 is no effect, 100 is complete control
Summary of the method: as §1

[13] = tested on: wheat (Triticum aestivum); assay: Test A postemergence wheat; conditions: 0 to 100 scale, 0 is no effect, 100 is complete control
Summary of the method: as §1

[14] = tested on: corn (Zea mays); assay: Test A postemergence corn; conditions: 0 to 100 scale, 0 is no effect, 100 is complete control
Summary of the method: as §1

[15] = tested on: blackgrass (Alopecurus myosuroides); assay: Test A postemergence blackgrass; conditions: 0 to 100 scale, 0 is no effect, 100 is complete control
Summary of the method: as §1

[16] = tested on: galium (catchweed bedstraw, Galium aparine); assay: Test A postemergence galium; conditions: 0 to 100 scale, 0 is no effect, 100 is complete control
Summary of the method: as §1

[17] = tested on: rice (Oryza sativa); assay: Test B flooded paddy test rice; conditions: Table B, Flood, scale 0 to 100
Summary of the method: (§2)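 Water-applied paddy treatment: compound dosed into 3 cm flood on 2-leaf plants, read visually versus controls after 13 to 15 d.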

[18] = tested on: sedge, umbrella (small-flower umbrella sedge, Cyperus difformis); assay: Test B flooded paddy test sedge, umbrella; conditions: Table B, Flood, scale 0 to 100
Summary of the method: as §2

[19] = tested on: ducksalad (Heteranthera limosa); assay: Test B flooded paddy test ducksalad; conditions: Table B, Flood, scale 0 to 100
Summary of the method: as §2

[20] = tested on: barnyardgrass (Echinochloa crus-galli); assay: Test B flooded paddy test barnyardgrass; conditions: Table B, Flood, scale 0 to 100
Summary of the method: as §2

Row | SMILES | Barnyardgrass plant response rating ([1]; 125 g ai/ha) | Barnyardgrass plant response rating ([1]; 500 g ai/ha) | Kochia plant response rating ([2]; 125 g ai/ha) | Kochia plant response rating ([2]; 500 g ai/ha) | Ragweed plant response rating ([3]; 125 g ai/ha) | Ragweed plant response rating ([3]; 500 g ai/ha) | Ryegrass, Italian plant response rating ([4]; 125 g ai/ha) | Ryegrass, Italian plant response rating ([4]; 500 g ai/ha) | Foxtail, Giant plant response rating ([5]; 125 g ai/ha) | Foxtail, Giant plant response rating ([5]; 500 g ai/ha) | Pigweed plant response rating ([6]; 125 g ai/ha) | Pigweed plant response rating ([6]; 500 g ai/ha) | Plant response rating, Barnyardgrass ([7]; 125 g ai/ha) | Plant response rating, Barnyardgrass ([7]; 500 g ai/ha) | Plant response rating, Kochia ([8]; 125 g ai/ha) | Plant response rating, Kochia ([8]; 500 g ai/ha) | Plant response rating, Ragweed ([9]; 125 g ai/ha) | Plant response rating, Ragweed ([9]; 500 g ai/ha) | Plant response rating, Ryegrass, Italian ([10]; 125 g ai/ha) | Plant response rating, Ryegrass, Italian ([10]; 500 g ai/ha) | also measured
1 | O=C1NCCC(c2cccc(C(F)(F)F)c2)C1C(=O)Nc1ccc(F)cc1F (racemic) [Compound 27] | 60 | 90 | 0 | 0 | 0 | 0 | 0 | 0 | 80 | 90 | 0 | 0 | 50 | 60 | 0 | 0 | 0 | 0 | 0 | 0 | Plant response rating, Foxtail, Giant ([11]; 125 g ai/ha): 40; Plant response rating, Foxtail, Giant ([11]; 500 g ai/ha): 70; Plant response rating, Pigweed ([12]; 125 g ai/ha): 0; Plant response rating, Pigweed ([12]; 500 g ai/ha): 0; Plant response rating, Wheat ([13]; 125 g ai/ha): 0; Plant response rating, Wheat ([13]; 500 g ai/ha): 0; Plant response rating, Corn ([14]; 125 g ai/ha): 0; Plant response rating, Corn ([14]; 500 g ai/ha): 0; Plant response rating, Blackgrass ([15]; 125 g ai/ha): 0; Plant response rating, Blackgrass ([15]; 500 g ai/ha): 0; Plant response rating, Galium ([16]; 125 g ai/ha): 0; Plant response rating, Galium ([16]; 500 g ai/ha): 0; Plant response rating ([17]; 500 g ai/ha): 0; Plant response rating ([18]; 500 g ai/ha): 0; Plant response rating ([19]; 500 g ai/ha): 0; Plant response rating ([20]; 500 g ai/ha): 0
2 | O=C1NCCC(c2cccc(OC(F)(F)F)c2)C1C(=O)Nc1cccc(F)c1F (racemic) [Compound 39] | 80 | 90 | 0 | 0 | 0 | 0 | 30 | 70 | 90 | 90 | 0 | 10 | 80 | 80 | 0 | 0 | 0 | 0 | 0 | 50 | Plant response rating, Foxtail, Giant ([11]; 125 g ai/ha): 70; Plant response rating, Foxtail, Giant ([11]; 500 g ai/ha): 90; Plant response rating, Pigweed ([12]; 125 g ai/ha): 0; Plant response rating, Pigweed ([12]; 500 g ai/ha): 0; Plant response rating, Wheat ([13]; 125 g ai/ha): 0; Plant response rating, Wheat ([13]; 500 g ai/ha): 30; Plant response rating, Corn ([14]; 125 g ai/ha): 0; Plant response rating, Corn ([14]; 500 g ai/ha): 50; Plant response rating, Blackgrass ([15]; 125 g ai/ha): 0; Plant response rating, Blackgrass ([15]; 500 g ai/ha): 60; Plant response rating, Galium ([16]; 125 g ai/ha): 0; Plant response rating, Galium ([16]; 500 g ai/ha): 0; Plant response rating ([17]; 250 g ai/ha): 0; Plant response rating ([18]; 250 g ai/ha): 0; Plant response rating ([19]; 250 g ai/ha): 100; Plant response rating ([20]; 250 g ai/ha): 65
3 | O=C1NCCC(c2cccc(C(F)F)c2)C1C(=O)Nc1ccc(F)c(F)c1F (stereo not drawn) [Compound 47] | 70 | 90 | 0 | 0 | 0 | 0 | 0 | 40 | 80 | 90 | 0 | 0 | 50 | 90 | 0 | 0 | 0 | 0 | 0 | 20 | Plant response rating, Foxtail, Giant ([11]; 125 g ai/ha): 70; Plant response rating, Foxtail, Giant ([11]; 500 g ai/ha): 80; Plant response rating, Pigweed ([12]; 125 g ai/ha): 0; Plant response rating, Pigweed ([12]; 500 g ai/ha): 0; Plant response rating, Wheat ([13]; 125 g ai/ha): 0; Plant response rating, Wheat ([13]; 500 g ai/ha): 30; Plant response rating, Corn ([14]; 125 g ai/ha): 0; Plant response rating, Corn ([14]; 500 g ai/ha): 0; Plant response rating, Blackgrass ([15]; 125 g ai/ha): 0; Plant response rating, Blackgrass ([15]; 500 g ai/ha): 0; Plant response rating, Galium ([16]; 125 g ai/ha): 0; Plant response rating, Galium ([16]; 500 g ai/ha): 0; Plant response rating ([17]; 250 g ai/ha): 0; Plant response rating ([18]; 250 g ai/ha): 0; Plant response rating ([19]; 250 g ai/ha): 50; Plant response rating ([20]; 250 g ai/ha): 0
4 | O=C1NCCC(c2cccc(C(F)(F)F)c2)C1C(=O)Nc1cccc(Cl)c1Cl (racemic) [Compound 31] | 70 | 80 | 0 | 0 | 0 | 0 | 0 | 0 | 70 | 90 | 0 | 0 | 60 | 80 | 0 | 0 | 0 | 0 | 0 | 0 | Plant response rating, Foxtail, Giant ([11]; 125 g ai/ha): 70; Plant response rating, Foxtail, Giant ([11]; 500 g ai/ha): 80; Plant response rating, Pigweed ([12]; 125 g ai/ha): 0; Plant response rating, Pigweed ([12]; 500 g ai/ha): 0; Plant response rating, Wheat ([13]; 125 g ai/ha): 0; Plant response rating, Wheat ([13]; 500 g ai/ha): 0; Plant response rating, Corn ([14]; 125 g ai/ha): 0; Plant response rating, Corn ([14]; 500 g ai/ha): 0; Plant response rating, Blackgrass ([15]; 125 g ai/ha): 20; Plant response rating, Blackgrass ([15]; 500 g ai/ha): 40; Plant response rating, Galium ([16]; 125 g ai/ha): 0; Plant response rating, Galium ([16]; 500 g ai/ha): 0; Plant response rating ([17]; 500 g ai/ha): 10; Plant response rating ([18]; 500 g ai/ha): 0; Plant response rating ([19]; 500 g ai/ha): 0; Plant response rating ([20]; 500 g ai/ha): 95
5 | O=C1NCCC(c2cccc(Cl)c2)C1C(=O)Nc1ccccc1F (racemic) [Compound 34] | 40 | 90 | 0 | 30 | 0 | 30 | 0 | 0 | 50 | 90 | 0 | 30 | 40 | 90 | 0 | 0 | 0 | 0 | 0 | 0 | Plant response rating, Foxtail, Giant ([11]; 125 g ai/ha): 40; Plant response rating, Foxtail, Giant ([11]; 500 g ai/ha): 80; Plant response rating, Pigweed ([12]; 125 g ai/ha): 0; Plant response rating, Pigweed ([12]; 500 g ai/ha): 0; Plant response rating, Wheat ([13]; 125 g ai/ha): 0; Plant response rating, Wheat ([13]; 500 g ai/ha): 0; Plant response rating, Corn ([14]; 125 g ai/ha): 0; Plant response rating, Corn ([14]; 500 g ai/ha): 0; Plant response rating, Blackgrass ([15]; 125 g ai/ha): 0; Plant response rating, Blackgrass ([15]; 500 g ai/ha): 0; Plant response rating, Galium ([16]; 125 g ai/ha): 0; Plant response rating, Galium ([16]; 500 g ai/ha): 0; Plant response rating ([17]; 500 g ai/ha): 0; Plant response rating ([18]; 500 g ai/ha): 0; Plant response rating ([19]; 500 g ai/ha): 40; Plant response rating ([20]; 500 g ai/ha): 0
